Data on eight molecules can be found in ChEMBL document CHEMBL4014296, “Constituents with potent α-glucosidase inhibitory activity from Pueraria lobata (Willd.) ohwi” (Bioorg Med Chem Lett, 2017).

pIC50: −log10 of the molar value. Activity calls are given as the source filed them. No cut-off for these calls is given here.

One may read the inhibition as the drop in the measured response relative to a control, in per cent. The term pIC50 denotes −log10 of the IC50, conventionally taken in molar units. A high value points to a small IC50.

The nature of data set [1]: Inhibition of alpha glucosidase (unknown origin) using alpha PNPG as substrate at 0.0625 mg/mL preincubated for 15 mins followed by substrate addition measured after 15 mins relative to control. As to conditions: Homo sapiens.
Data set [2] in a line: Inhibition of alpha glucosidase (unknown origin) using alpha PNPG as substrate at 0.25 mg/mL preincubated for 15 mins followed by substrate addition measured after 15 mins relative to control. The conditions noted are these: Homo sapiens.
The nature of data set [3]: Inhibition of alpha glucosidase (unknown origin) using alpha PNPG as substrate at 0.5 mg/mL preincubated for 15 mins followed by substrate addition measured after 15 mins relative to control. As to conditions: Homo sapiens.
The nature of data set [4]: Inhibition of alpha glucosidase (unknown origin) using alpha PNPG as substrate at 0.125 mg/mL preincubated for 15 mins followed by substrate addition measured after 15 mins relative to control. The conditions noted are these: Homo sapiens.
The nature of data set [5]: Inhibition of alpha glucosidase (unknown origin) using alpha PNPG as substrate preincubated for 15 mins followed by substrate addition measured after 15 mins. Also noted: species or system Homo sapiens. As to conditions: for inhibition: Homo sapiens.
Data set [6] is described as follows: Solubility of the compound. It counts as physicochemical.
The species entered for data set [7] is Homo sapiens. Put plainly: Potency index, ratio of acarbose IC50 to compound IC50 for alpha glucosidase (unknown origin).
The species named for data set [8] is Homo sapiens. Put plainly: Irreversible inhibition of alpha glucosidase (unknown origin) using alpha PNPG as substrate at 0.005 mg/mL.
For data set [9], the species on record is Homo sapiens. As to the kind of experiment: Inhibition of alpha glucosidase (unknown origin) using alpha PNPG as substrate at 10 mg/mL preincubated for 15 mins followed by substrate addition measured after 15 mins relative to control.
The species entered for data set [10] is Homo sapiens. As to the kind of experiment: Inhibition of alpha glucosidase (unknown origin) using alpha PNPG as substrate at 0.00391 mg/mL preincubated for 15 mins followed by substrate addition measured after 15 mins relative to control.
The species entered for data set [11] is Homo sapiens. Put plainly: Inhibition of alpha glucosidase (unknown origin) using alpha PNPG as substrate at 4.88 10^-4mg/ml preincubated for 15 mins followed by substrate addition measured after 15 mins relative to control.
The species named for data set [12] is Homo sapiens. As to the kind of experiment: Inhibition of alpha glucosidase (unknown origin) using alpha PNPG as substrate at 5 mg/mL preincubated for 15 mins followed by substrate addition measured after 15 mins relative to control.
The species named for data set [13] is Homo sapiens. Put plainly: Inhibition of alpha glucosidase (unknown origin) using alpha PNPG as substrate at 9.77 10^-4mg/ml preincubated for 15 mins followed by substrate addition measured after 15 mins relative to control.
The species entered for data set [14] is Homo sapiens. As to the kind of experiment: Inhibition of alpha glucosidase (unknown origin) using alpha PNPG as substrate at 1.25 mg/mL preincubated for 15 mins followed by substrate addition measured after 15 mins relative to control.
For data set [15], the species on record is Homo sapiens. Put plainly: Inhibition of alpha glucosidase (unknown origin) using alpha PNPG as substrate at 2.5 mg/mL preincubated for 15 mins followed by substrate addition measured after 15 mins relative to control.
For data set [16], the species on record is Homo sapiens. As to the kind of experiment: Inhibition of alpha glucosidase (unknown origin) using alpha PNPG as substrate at 0.00195 mg/mL preincubated for 15 mins followed by substrate addition measured after 15 mins relative to control.
For data set [17], the species on record is Homo sapiens. Put plainly: Non-competitive inhibition of alpha glucosidase (unknown origin) using varying levels of alpha PNPG substrate at 0.01 mg/mL by Lineweaver-Burk plot analysis.
For data set [18], the species on record is Homo sapiens. Put plainly: Inhibition of alpha glucosidase (unknown origin) using alpha PNPG as substrate at 0.01563 mg/mL preincubated for 15 mins followed by substrate addition measured after 15 mins relative to control.
For data set [19], the species on record is Homo sapiens. Put plainly: Reversible inhibition of alpha glucosidase (unknown origin) using alpha PNPG as substrate at 0.01 mg/mL.
Data set [20] is filed under the species Homo sapiens. As to the kind of experiment: Inhibition of alpha glucosidase (unknown origin) using alpha PNPG as substrate at 0.00781 mg/mL preincubated for 15 mins followed by substrate addition measured after 15 mins relative to control.
Data set [21] is filed under the species Homo sapiens. Put plainly: Inhibition of alpha glucosidase (unknown origin) using alpha PNPG as substrate at 0.03125 mg/mL preincubated for 15 mins followed by substrate addition measured after 15 mins relative to control.

For `CC1(C)C=Cc2cc3c(cc2O1)O[C@@H]1c2ccc(O)cc2OC[C@@]31O`, the inhibition is 42.5% in data set [1]; 60.1% in data set [2]; 86% in data set [3]; 49.9% in data set [4]; “Dose-dependent effect” in [5]. In data set [5], this molecule showed a pIC50 of 3.42 to 3.74.
Consider `COc1ccc2c(=O)cc(C(O)Cc3ccc(O)cc3)oc2c1` (stereo not drawn), for which the solubility result in data set [6] is reported as “Insoluble”.
As for `CC(C)=CCC/C(C)=C/Cc1cc2c3c(oc2cc1O)C(O)(O)c1ccc(O)cc1O3`, the Ratio IC50 in the data set filed under Homo sapiens [7] came to 1120. In data set [5], the pIC50 was 5.75 and the inhibition result was “Dose-dependent effect”. The inhibition result in the data set filed under Homo sapiens [8] was “Active”.
As for `C[C@H]1O[C@H](O[C@H]2[C@H](O)[C@@H](O)[C@@H](O[C@H]3[C@H](O)[C@@H](O)C(O)O[C@@H]3CO)O[C@@H]2CO)[C@H](O)[C@@H](O)[C@@H]1N[C@H]1C=C(CO)[C@@H](O)[C@H](O)[C@H]1O` (stereo partly drawn) [ACARBOSE], the inhibition in the data set listed under Homo sapiens [9] came out at 82.2%; in the data set listed under Homo sapiens [10], 89.5%; in the data set listed under Homo sapiens [11], 17.7%; in the data set filed under Homo sapiens [12] it was 58.4%; in the data set listed under Homo sapiens [13], 79.7%; in the data set filed under Homo sapiens [14], 42.2%. Also, the values for the inhibition result (in data set [5]; in the data set listed under Homo sapiens [15]; in the data set listed under Homo sapiens [16]) were “Dose-dependent effect”, 51.1% and 85.6%, respectively. Besides, the pIC50 in data set [5] was 2.70.
Consider `O=c1c(-c2ccc(O)cc2)coc2cc(O)ccc12` [DAIDZEIN], for which the inhibition in the data set listed under Homo sapiens [10] is 34.3%; in data set [5], “Dose-dependent effect”; in the data set listed under Homo sapiens [18], 59%; in the data set listed under Homo sapiens [20], 57.1%; in the data set filed under Homo sapiens [21], 72.8%. The Ratio IC50 in the data set filed under Homo sapiens [7] was found to be 87. This molecule also gave a pIC50 in data set [5] of 4.64. Besides, the inhibition entry in the data set filed under Homo sapiens [17] and in the data set listed under Homo sapiens [19] was “Active” in each case.
On to `O=c1c(-c2ccc(O)cc2)coc2cc(O[C@@H]3O[C@H](CO)[C@@H](O)[C@H](O)[C@H]3O)ccc12` [DAIDZIN], for which the inhibition in [1] was 41.2%; in [2], 77.3%; in data set [3], 84.8%; in data set [4], 66.8%; in data set [5], “Dose-dependent effect”. The negative-log IC50 (pIC50) in data set [5] is 3.60 to 3.75.
With `COc1ccc(-c2coc3cc(O[C@@H]4O[C@H](CO)[C@@H](O)[C@H](O)[C@H]4O)ccc3c2=O)cc1` [ONONIN], the inhibition was 29.4% in [1]; 56.3% in [2]; 74.9% in data set [3]; 31.6% in [4]; “Dose-dependent effect” in [5]. The molecule further had a pIC50 in [5] of 3.37.
As for `O=c1c(-c2ccc(O)cc2)coc2c([C@@H]3O[C@H](CO)[C@@H](O)[C@H](O)[C@H]3O)c(O)ccc12` [PUERARIN], the inhibition in [1] was 5.26%; in data set [2], 41.5%; in [3], 78.3%; in data set [4], 21.9%; in [5] it was “Dose-dependent effect”. The pIC50 in [5] was 3.28.
